For test [1], the system named is Pseudomonas aeruginosa. To be noted: THP-1 macrophages, 10 μM for 24 hours. The method, then:
To determine intracellular killing, macrophages were treated with vehicle (DMSO) or sulforaphane (10 μM) for 24 hours. Cells were then washed and the medium was replaced with serum-free medium. After the medium replacement, approximately 10^5 CFUs of PA were added to each well. After 1 h, the medium was removed and cells were washed, and the gentamicin-containing medium was added to kill bound, unphagocytosed bacteria. Cells were lysed at the indicated time points, and lysates were plated to determine viable intracellular bacteria.

Test [2] deals with Pseudomonas aeruginosa. To be noted: alveolar macrophages from mice exposed to CS, ex vivo. As for the experimental part: After treatment, macrophages (10^5 cells) were incubated with bacteria (PA or NTHI) for 4 h. Subsequently, 100 μL of cell free culture medium was aseptically plated and cultured on tryptose blood and or chocolate agar plates at 37° C. The number of bacterial colonies was counted after 24 h.
Bacterial phagocytosis was quantified using a flow cytometry analysis.
(§1) C57BL/6J mice were housed under controlled conditions for temperature and humidity, using a 12-hour light/dark cycle. At 8 weeks of age, mice were exposed to CS for (2.5 h/day for 5 days/week) for 1 week or 6 months using a machine that produces cigarette smoke (TE-10, Teague Enterprises) and reference cigarettes (2R4F) with a total suspended particle concentration of 250 mg/m^3 as previously described (T. E. Sussan et al., Proc Natl Acad Sci USA, (Dec. 22, 2008)). Following exposure to CS, mice were inoculated with PA or NTHI at a dose of 10^3 CFU in 50 μl of PBS intranasally. For sulforaphane administration (0.5 mg/mouse of R, S-sulforaphane in PBS), a nebulizer (Aerogen, Inc., Galway, Ireland) designed specifically for small animals was used.

Test [3] has as its system nontypeable Haemophilus influenza (NTHI). To be noted: wild-type mice after 6 months of chronic exposure to cigarette smoke. The method, then: as §1
BAL fluid analysis and cell counts with differential staining were carried out as described previously (T. Rangasamy et al., J Clin Invest 114, 1248 (November, 2004)). For analyzing bacterial colonization in lungs, 100 μl of BAL fluid were diluted serially in sterile 0.9% NaCl and aseptically plated and cultured on appropriate (blood [PA] or chocolate [NTHI]) agar plates. After 24 h, the number of CFU was counted.

A further test relates to Nrf2. To be noted: COPD alveolar macrophages, 5 μM for 16 h. As for the experimental part:
(§2) For inducing corticosteroid resistance, PMs were exposed to cigarette smoke condensate (CSC, 100 μg/ml; Murty Pharmaceuticals, Lexington, Ky.) for 16 h. Exposure to S-nitrosoglutathione (GSNO, 10 μM) was limited to 4 h. […] For assessing corticosteroid responsiveness, macrophages were incubated with dexamethasone (1 μM, Sigma) for 1 h followed by LPS (100 ng/ml, Sigma) for additional 4 h.
All immunoblots were performed by using protocols as described previously (Barnes, P. J., N Engl J Med 343, 269-280 (2000)). Rabbit anti-HDAC2 antibody from Santa Cruz Biotechnology (Santa Cruz, Calif.) was used at 1:500 dilutions. Rabbit anti-5-nitroso-cysteine antibody from Alpha diagnostics was used at 1:500 dilutions. Rabbit anti-nitro-tyrosine antibody from Cell Signaling Technology, was used at 1:250 dilution. Rabbit anti-ubiquitin antibody from Santa Cruz Biotechnology (Santa Cruz, Calif.) was used at 1:1000 dilutions. Rabbit anti-GR antibody from Santa Cruz Biotechnology (Santa Cruz, Calif.) was used at a dilution of 1:1000. Rabbit anti-MMP9 antibody from Sigma Aldrich was used at 1:500 dilutions. Rabbit anti-acetyl-lysine antibody from Abcam was used at 1:750 dilutions. Rabbit anti-lamin-B1 from Santa Cruz Biotechnology (Santa Cruz, Calif.) was used at 1:1000 dilutions as a loading control. The Image J program was used for densitometry analyses.
(§3) Total RNA was extracted from the cells by lysis and specific binding to a silica membrance (Qiagen RNeasy kit, Qiagen, Valencia, Calif.), and qRT-PCR was performed by using primers and probe sets for human IL-8, NQO1, GCLM, and iNOS (Assay-on-Demand, Applied Biosystems, Foster City, Calif.). A real-time fluorescent PCR system (ABI 7000 Taqman system, Applied Biosystems) was used to perform these assays. β-actin was used as the normalization control.

The test system of another test is NO. Kind of test: NO levels and iNOS expression in alveolar macrophages. In kind it is cell-based, human. To be noted: COPD alveolar macrophages, vs vehicle. As for the experimental part:
as §2
HDAC activity was measured using a fluorescent derivative of ε-acetyl-lysine from Enzo life sciences (Farmingdale, N.Y.) according to the manufacturer's recommendations. HDAC2 was immunoprecipitated for analysis of enzymatic activity.
as §3

“Also recorded” adds a separate entry of the source.

For `C[S+]([O-])CCCCN=C=S` (centres unmarked) [sulforaphane], the “kinetics of intracellular killing” value in the test on Pseudomonas aeruginosa [1] is on record as “moderate increase in the kinetics of intracellular killing”. Also, the “bacterial phagocytic ability and clearance” value in the test on Pseudomonas aeruginosa [2] is “increased bacterial phagocytic ability and clearance”. In test [3], the “bacterial colonization (NTHI) in the lungs” value is “inhibited bacterial colonization”. Besides, in the test on Nrf2, the “GSH biosynthesizing enzymes (GCLC, GCLM)” value is “significantly elevated”; the “Nrf2-regulated antioxidant genes (NQO1, HO-1)” value was “significantly elevated”; the “Nrf2 nuclear protein levels” value is reported as “significantly elevated”. In addition, in the test with NO, the NO levels entry is recorded as “significantly lower levels; also recorded: suppressed NO generation” and the iNOS expression entry was “significantly lower levels”.

For the origin of these results see US20130039928A1, “COMPOSITIONS AND METHODS FOR REVERSING CORTICOSTEROID RESISTANCE OR TREATING RESPIRATORY INFECTIONS” (priority 2010, published 2013).
